Entries after “also recorded” stand apart in the source; their conditions may differ.
Assays:
[1] = tested on: ACE2 release from the plasma membrane of CHO cells expressing full-length human ACE2; experiment: Shedding of ACE2 from Chinese hamster ovary cells (ACE2 activity in medium, QFS assay); assay type: cell-based; conditions: PMA 1 μM, 4 hr incubation
Method: ACE2 catalytic activity was measured by cleavage of a quenched fluorescent substrate (QFS), namely (7-methoxycoumarin-4-yl)-acetyl-Ala-Pro-Lys(2,4-dinitrophenyl) as published in Vickers et al, 2002. The substrate is kept as stock at 5 mg/ml (7.14 mM) at −20° C. in DMSO, diluted 14.28-fold in ACE2 buffer (100 mM Tris-HCl, 1 M NaCl, pH 6.5) for a 500 μM working stock for assay. Assays were performed in black 96-well microtiter plates with 100 μl/well sample and ACE2 buffer in a final volume of 200 μl per well. In a separate series of wells, 100 μl/well sample, […] ACE2 buffer, and 20 μl/well of the specific ACE2 activity inhibitor, MLN-4760 (Millenium Pharmaceuticals, Cambridge, Mass., USA) at 100 mM is added. 50 μM QFS (20 μl/well) is then added to all wells.
Reactions proceeded at 37° C. within a temperature-controlled fluorescence microplate reader (FLUOStar Optima, BMG Labtech, Offenburg, Germany) and continuous readings of the liberated fluorescence taken over a 4 hr period (λex=320 nm, λem =405 nm). Specific ACE2 activity was calculated by subtraction of fluorescence in the presence of MLN-4760 inhibitor from the fluorescence in the absence of the MLN-4760 inhibitor.
Full-length human ACE2 was expressed in Chinese hamster ovary (CHO) cells using a modified DEAE-Dextran transfection method. […]

HepG2 cells = experiment: Shedding of ACE2 from HepG2 cells; assay type: cell-based; conditions: endogenous ACE2, phorbol ester treatment, data not shown

In the case of `CCCCCCCCCCCCCC(=O)O[C@@H]1[C@@H](C)[C@@]2(O)[C@@H](C=C(CO)C[C@]3(O)C(=O)C(C)=C[C@@H]23)[C@@H]2C(C)(C)[C@]12OC(C)=O` [PMA], the “ACE2 release from the plasma membrane (ACE2 catalytic activity in medium)” value [1] is reported as “increased; also recorded: enhanced”, the “ACE2 release from the plasma membrane (ACE2 catalytic activity in medium)” value ([1]; listed as phorbol ester) is reported as “increased up to two-fold” and the “shedding of ACE2” value (HepG2 cells) is reported as “increased up to two-fold”.
